Source: paper PMC9743094, “Synthesis and Evaluation of Polymyxins Bearing Reductively Labile Disulfide-Linked Lipids” (Journal of Medicinal Chemistry, 2022)
In brackets after ≈: the same amount, converted by molar mass. Positions of bridges follow the written chain, without caps; N, C: chain ends. Non-standard residues stand in square brackets, D forms with d. Residues, ends and D or L forms follow the SMILES beside them. *: point of attachment. S(2-cyclohexylethyl) = C1CCC(CCS*)CC1; X3 = c1ccc(Oc2ccc(CS*)cc2)cc1; X5 = c1ccc(-c2ccc(CS*)cc2)cc1; S(3-Methylbutyl) = CC(C)CCS*; Dab = NCC[C@H](N)C(=O)O; X1 = CC(C)CCCCS*; X4 = CCCCCCS*

Columns and labels:
[1] = system: differentiated conditionally immortalized PTECs (ciPTECs, OAT-1); assay: ciPTEC toxicity assay (PrestoBlue); format: cell-based, human
Procedure: ciPTECs (OAT-1) cells,[52],[53] grown to 90–100% confluence, were washed by Hanks’ balanced salt solution (HBSS; Gibco, Life Technologies, Paisley, U.K.) and detached by accutase (4 mL) for 5 min at 37 °C. The cells were then suspended in fresh medium (DMEM/F-12, supplemented with 10% fetal calf serum, insulin (5 μg/mL), transferrin (5 μg/mL), selenium (5 μg/mL) hydrocortisone (35 ng/mL), Epidermal Growth Factor (10 ng/mL) and tri-iodothyronine (40 pg/mL)). Cell density was adjusted to 2.0 × 10^5 cells/mL, of which 100 μL was added to each well of a 96-well plate. The cells were incubated for 24 h at 33 °C, followed by 6 days at 37 °C, in a humidified atmosphere containing 5% (v/v) CO2. The medium was refreshed every second or third day.
Compounds were dissolved and serially diluted in serum-free medium. Differentiated cells were washed once with HBSS and serially diluted compounds (80 μL/well) were transferred to the ciPTEC-containing plate. Compounds were incubated for 24 h at 37 °C; the cells were washed by HBSS, followed by incubation with 10% PrestoBlue cell viability reagent (Thermo Scientific, Vienna, Austria) in HBSS at 37 °C in the dark. Fluorescence was recorded (excitation: 530 nm, emission: 590 nm). Raw data are corrected for PrestoBlue background fluorescence and reported relative to the no-treatment control (cells with medium only). Viability data were fitted with GraphPad Prism software (version 5.03; GraphPad Software, La Jolla, CA), by nonlinear regression with 0 as bottom constraint. Presented data are based on triplicates.
Toxicity assessment on PTECs
Table S1. TC50 values for polymyxin analogues. Toxicity assessment on proximal tubular epithelial cells
performed using PrestoBlue™ assay. TC50 values are derived after non-linear regression analysis on cell viability
correspond to data obtained from 2 different batches of cells/analyses on different days. As the value for
polymyxin B differs 2-fold, values in the manuscript are presented relative to the polymyxin B value.
Compound TC50 (µ M) Compound TC50 (µ M)
Polymyxin B 80 Polymyxin B 41
Figure S3. Representative traces of ciPTECs’ viability after incubation with analogues for 24 hours. Shown data are based on […]

E. coli (ATCC 25922) = format: cell-based; settings: ATCC 25922
Procedure: (§1) Minimum inhibitory concentrations (MICs) on relevant Gram-negative bacteria were determined by broth microdilution, in accordance with CLSI guidelines. Indicated bacteria were taken from glycerol stocks and incubated overnight on blood agar at 37 °C. Well-isolated colonies were taken, suspended in TSB (5 mL), and grown to an OD600 of 0.5. Compounds to be tested were dissolved in DMSO (6.4 mg/mL), diluted in cation-adjusted Mueller–Hinton Broth (CAMHB) (12.5 and 20 μg/mL Mg^2+ and Ca^2+, respectively), and diluted serially on polypropylene microtiter plates. To the diluted compounds (50 μL per well) was added 50 μL of relevant bacterial suspension, to yield a final concentration of 10^6 CFU/mL. Plates were covered by adhesive gas-permeable membranes and incubated at 37 °C. MIC was read out as the lowest concentration that inhibited visual bacterial growth. Shown values are consistent results from at least duplicate experiments.

[2] = system: A. baumannii (ATCC 19606); format: cell-based; settings: ATCC 19606
Procedure: as §1

[3] = system: P. aeruginosa (ATCC 27853); format: cell-based; settings: ATCC 27853
Procedure: as §1

[4] = system: K. pneumoniae (ATCC 13883); format: cell-based; settings: ATCC 13883
Procedure: as §1

Row | MIC E. coli (ATCC 25922) (E. coli (ATCC 25922)) | MIC A. baumannii (ATCC 19606) [2] | MIC P. aeruginosa (ATCC 27853) [3] | MIC K. pneumoniae (ATCC 13883) [4] | Compound | TC50, Day 1 [1] | ciPTEC Toxicity Index (relative to polymyxin B) [1] | TC50, Day 2 [1]
1 | 8 µg/mL (≈ 6.77 µM) | >32 µg/mL | 2 µg/mL (≈ 1.69 µM) | 4 µg/mL (≈ 3.38 µM) | CCCCCCSSC[C@H](N)C(=O)N[C@H](C(=O)N[C@@H](CCN)C(=O)N[C@H]1CCNC(=O)[C@H]([C@@H](C)O)NC(=O)[C@H](CCN)NC(=O)[C@H](CCN)NC(=O)[C@H](CC(C)C)NC(=O)[C@@H](Cc2ccccc2)NC(=O)[C@H](CCN)NC1=O)[C@@H](C)O [Compound 17a] (H-C(X4)T[Dab][Dab][Dab][dF]L[Dab][Dab]T; lactam 4-C) | 421 µM | 5.3 | –
2 | 2 µg/mL (≈ 1.69 µM) | 1 µg/mL (≈ 0.846 µM) | 2 µg/mL (≈ 1.69 µM) | 0.5 µg/mL (≈ 0.423 µM) | CCCCCCSSC[C@@H](N)C(=O)N[C@H](C(=O)N[C@@H](CCN)C(=O)N[C@H]1CCNC(=O)[C@H]([C@@H](C)O)NC(=O)[C@H](CCN)NC(=O)[C@H](CCN)NC(=O)[C@H](CC(C)C)NC(=O)[C@@H](Cc2ccccc2)NC(=O)[C@H](CCN)NC1=O)[C@@H](C)O [Compound 17b] (H-[dC](X4)T[Dab][Dab][Dab][dF]L[Dab][Dab]T; lactam 4-C) | 240 µM | 3.0 | –
3 | 16 µg/mL (≈ 13.7 µM) | >32 µg/mL | 2 µg/mL (≈ 1.71 µM) | 8 µg/mL (≈ 6.85 µM) | CC(C)CCSSC[C@H](N)C(=O)N[C@H](C(=O)N[C@@H](CCN)C(=O)N[C@H]1CCNC(=O)[C@H]([C@@H](C)O)NC(=O)[C@H](CCN)NC(=O)[C@H](CCN)NC(=O)[C@H](CC(C)C)NC(=O)[C@@H](Cc2ccccc2)NC(=O)[C@H](CCN)NC1=O)[C@@H](C)O [Compound 18a] (H-C(S(3-Methylbutyl))T[Dab][Dab][Dab][dF]L[Dab][Dab]T; lactam 4-C) | 786 µM | 9.8 | –
4 | 4 µg/mL (≈ 3.34 µM) | 2 µg/mL (≈ 1.67 µM) | 16 µg/mL (≈ 13.4 µM) | 2 µg/mL (≈ 1.67 µM) | CC(C)CCCCSSC[C@@H](N)C(=O)N[C@H](C(=O)N[C@@H](CCN)C(=O)N[C@H]1CCNC(=O)[C@H]([C@@H](C)O)NC(=O)[C@H](CCN)NC(=O)[C@H](CCN)NC(=O)[C@H](CC(C)C)NC(=O)[C@@H](Cc2ccccc2)NC(=O)[C@H](CCN)NC1=O)[C@@H](C)O [Compound 20b] (H-[dC](X1)T[Dab][Dab][Dab][dF]L[Dab][Dab]T; lactam 4-C) | – | 3.3 | 135 µM
5 | 2 µg/mL (≈ 1.61 µM) | 1 µg/mL (≈ 0.807 µM) | 2 µg/mL (≈ 1.61 µM) | 1 µg/mL (≈ 0.807 µM) | CCCCCCSSC[C@@H](NC(=O)CN)C(=O)N[C@H](C(=O)N[C@@H](CCN)C(=O)N[C@H]1CCNC(=O)[C@H]([C@@H](C)O)NC(=O)[C@H](CCN)NC(=O)[C@H](CCN)NC(=O)[C@H](CC(C)C)NC(=O)[C@@H](Cc2ccccc2)NC(=O)[C@H](CCN)NC1=O)[C@@H](C)O [Compound 21b] (H-G[dC](X4)T[Dab][Dab][Dab][dF]L[Dab][Dab]T; lactam 5-C) | 357 µM | 4.4 | –
6 | 2 µg/mL (≈ 1.63 µM) | 1 µg/mL (≈ 0.816 µM) | 1 µg/mL (≈ 0.816 µM) | 0.5 µg/mL (≈ 0.408 µM) | CC(C)CCSSC[C@@H](NC(=O)CN)C(=O)N[C@H](C(=O)N[C@@H](CCN)C(=O)N[C@H]1CCNC(=O)[C@H]([C@@H](C)O)NC(=O)[C@H](CCN)NC(=O)[C@H](CCN)NC(=O)[C@H](CC(C)C)NC(=O)[C@@H](Cc2ccccc2)NC(=O)[C@H](CCN)NC1=O)[C@@H](C)O [Compound 22b] (H-G[dC](S(3-Methylbutyl))T[Dab][Dab][Dab][dF]L[Dab][Dab]T; lactam 5-C) | 163 µM | – | –
7 | 2 µg/mL (≈ 1.58 µM) | 1 µg/mL (≈ 0.79 µM) | 1 µg/mL (≈ 0.79 µM) | 1 µg/mL (≈ 0.79 µM) | CC(C)C[C@@H]1NC(=O)[C@@H](Cc2ccccc2)NC(=O)[C@H](CCN)NC(=O)[C@@H](NC(=O)[C@H](CCN)NC(=O)[C@@H](NC(=O)[C@@H](CSSCCC2CCCCC2)NC(=O)CN)[C@@H](C)O)CCNC(=O)[C@H]([C@@H](C)O)NC(=O)[C@H](CCN)NC(=O)[C@H](CCN)NC1=O [Compound 23b] (H-G[dC](S(2-cyclohexylethyl))T[Dab][Dab][Dab][dF]L[Dab][Dab]T; lactam 5-C) | – | – | 58 µM
8 | 2 µg/mL (≈ 1.6 µM) | 1 µg/mL (≈ 0.798 µM) | 2 µg/mL (≈ 1.6 µM) | 1 µg/mL (≈ 0.798 µM) | CC(C)CCCCSSC[C@@H](NC(=O)CN)C(=O)N[C@H](C(=O)N[C@@H](CCN)C(=O)N[C@H]1CCNC(=O)[C@H]([C@@H](C)O)NC(=O)[C@H](CCN)NC(=O)[C@H](CCN)NC(=O)[C@H](CC(C)C)NC(=O)[C@@H](Cc2ccccc2)NC(=O)[C@H](CCN)NC1=O)[C@@H](C)O [Compound 24b] (H-G[dC](X1)T[Dab][Dab][Dab][dF]L[Dab][Dab]T; lactam 5-C) | – | – | 63 µM
9 | 4 µg/mL (≈ 3.16 µM) | 1 µg/mL (≈ 0.791 µM) | 2 µg/mL (≈ 1.58 µM) | 1 µg/mL (≈ 0.791 µM) | CC(C)C[C@@H]1NC(=O)[C@@H](Cc2ccccc2)NC(=O)[C@H](CCN)NC(=O)[C@@H](NC(=O)[C@H](CCN)NC(=O)[C@@H](NC(=O)[C@H](N)CSSCc2ccc(-c3ccccc3)cc2)[C@@H](C)O)CCNC(=O)[C@H]([C@@H](C)O)NC(=O)[C@H](CCN)NC(=O)[C@H](CCN)NC1=O [Compound 36] (H-[dC](X5)T[Dab][Dab][Dab][dF]L[Dab][Dab]T; lactam 4-C) | – | 1.7 | 68 µM
10 | 4 µg/mL (≈ 3.12 µM) | 1 µg/mL (≈ 0.781 µM) | 4 µg/mL (≈ 3.12 µM) | 1 µg/mL (≈ 0.781 µM) | CC(C)C[C@@H]1NC(=O)[C@@H](Cc2ccccc2)NC(=O)[C@H](CCN)NC(=O)[C@@H](NC(=O)[C@H](CCN)NC(=O)[C@@H](NC(=O)[C@H](N)CSSCc2ccc(Oc3ccccc3)cc2)[C@@H](C)O)CCNC(=O)[C@H]([C@@H](C)O)NC(=O)[C@H](CCN)NC(=O)[C@H](CCN)NC1=O [Compound 37] (H-[dC](X3)T[Dab][Dab][Dab][dF]L[Dab][Dab]T; lactam 4-C) | – | 1.8 | 72 µM
11 | >32 µg/mL | >32 µg/mL | >32 µg/mL | >32 µg/mL | CC(C)C[C@@H]1NC(=O)[C@@H](Cc2ccccc2)NC(=O)[C@H](CCN)NC(=O)[C@@H](NC(=O)[C@H](CCN)NC(=O)[C@@H](N)[C@@H](C)O)CCNC(=O)[C@H]([C@@H](C)O)NC(=O)[C@H](CCN)NC(=O)[C@H](CCN)NC1=O [PMBN, polymyxin B nonapeptide, reference compound] (H-T[Dab][Dab][Dab][dF]L[Dab][Dab]T; lactam 3-C) | – | – | –

Row | Compound | MIC E. coli (ATCC 25922) (E. coli (ATCC 25922)) | MIC A. baumannii (ATCC 19606) [2] | MIC P. aeruginosa (ATCC 27853) [3] | MIC K. pneumoniae (ATCC 13883) [4] | TC50, Day 1 [1] | ciPTEC Toxicity Index (relative to polymyxin B) [1] | TC50, Day 2 [1]
12 | CC(C)C[C@@H]1NC(=O)[C@@H](Cc2ccccc2)NC(=O)[C@H](CCN)NC(=O)[C@@H](NC(=O)[C@H](CCN)NC(=O)[C@@H](NC(=O)[C@H](N)CSSCCC2CCCCC2)[C@@H](C)O)CCNC(=O)[C@H]([C@@H](C)O)NC(=O)[C@H](CCN)NC(=O)[C@H](CCN)NC1=O [Compound 19b] (H-[dC](S(2-cyclohexylethyl))T[Dab][Dab][Dab][dF]L[Dab][Dab]T; lactam 4-C) | 1 µg/mL (≈ 0.827 µM) | 1 µg/mL (≈ 0.827 µM) | 2 µg/mL (≈ 1.65 µM) | 1 µg/mL (≈ 0.827 µM) | – | – | 51 µM
